This note sets out measurements from US7598242B2 (priority 2001, dated 2009).

Broadly, the Ki is a dissociation constant, usually derived from enzyme kinetics or from competition with a known ligand.

The target in the experiment is T1, purified catalytic domain of recombinant human TACE (rhTACEc) (Homo sapiens, UniProt P78536, N452Q/S266A).
T1 construct: Residue 215 to 477 with two mutation (S266A and N452Q) and a 6×His tail; 6xHis (C); made in house; host or cells: baculovirus/Hi5 insect cells
Description: biochemical.

T1 sequence (P78536 215-477 S266A/N452Q): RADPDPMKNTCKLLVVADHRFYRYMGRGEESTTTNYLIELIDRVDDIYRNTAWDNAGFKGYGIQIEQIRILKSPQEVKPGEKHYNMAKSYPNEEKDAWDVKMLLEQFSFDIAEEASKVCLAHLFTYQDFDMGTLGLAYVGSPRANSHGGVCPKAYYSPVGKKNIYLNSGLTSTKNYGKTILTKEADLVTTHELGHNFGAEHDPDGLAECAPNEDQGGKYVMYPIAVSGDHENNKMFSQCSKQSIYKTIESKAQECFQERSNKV

Take `CCOC(=O)[C@@]1(Cc2ccc(OCc3ccnc(N4CCOCC4)c3)cc2)C[C@@H]1C(=O)NO` [LH]: the Ki is < 20 nM.
Consider `CN(C)C(=O)[C@@]1(Cc2ccc(OCc3cc(C(F)(F)F)nc4ccccc34)cc2)C[C@@H]1C(=O)NO` [BO], for which the Ki was < 20 nM.
For `Cc1cc(COc2ccc(C[C@]3(C(N)=O)C[C@@H]3C(=O)NO)cc2Br)c2ccccc2n1` [FQ] the value was < 20 nM; for `Cc1cc(COc2cccc([C@@]3(C(=O)NC4CCCCC4)C[C@H]3C(=O)NO)c2)c2ccccc2n1` [JY], < 20 nM; for `CCc1cc(COc2ccc(C[C@]3(C(=O)N4CC[C@H](N(C)C)C4)C[C@@H]3C(=O)NO)cc2)c2ccccc2n1` [JF], < 20 nM.
For `O=C1CN(C(=O)[C@@]2(Cc3ccc(OCc4cc(-c5ccccc5)nc5ccccc45)cc3)C[C@@H]2C(=O)NO)CCN1` [BQ] the value was < 20 nM.
For `Cc1cc(COc2ccc(C[C@]3(C(N)=O)C[C@@H]3C(=O)NO)cc2Cl)c2ccccc2n1` [FN] the value was < 20 nM.
As for `O=C(NO)[C@H]1C[C@]1(Cc1ccc(OCc2cc(-c3ccccc3)nc3ccccc23)cc1)C(=O)N1CC[C@H](NC(=O)C(F)(F)F)C1` [JE], the Ki is < 20 nM.
For `CN(C)C1CCN(C(=O)[C@@]2(Cc3ccc(OCc4cc(-c5ccncc5)nc5ccccc45)c(F)c3)C[C@@H]2C(=O)NO)C1` (some centres unmarked) [JV], the Ki was < 20 nM.
For `CCc1cc(COc2ccc(C[C@]3(C(=O)N4CC[C@H](N(C)C)C4)C[C@@H]3C(=O)NO)cc2F)c2ccccc2n1` [JT], the Ki is < 20 nM.
With `CN1CCN(c2cc(COc3ccc(C[C@]4(C(N)=O)C[C@@H]4C(=O)NO)cc3F)c3ccccc3n2)CC1` [FX] the figure was < 20 nM; with `CN(C)CCN(C)C(=O)[C@@]1(Cc2ccc(OCc3cc(-c4ccccc4)nc4ccccc34)cc2)C[C@@H]1C(=O)NO` [JD], < 20 nM.
For `CCc1cc(COc2ccc(C[C@]3(C(=O)N4CC[C@H](O)C4)C[C@@H]3C(=O)NO)cc2F)c2ccccc2n1` [JR], the Ki was < 20 nM.
With `CCc1cc(COc2ccc(C[C@]3(C(=O)N4CC[C@H](O)C4)C[C@@H]3C(=O)NO)cc2)c2ccccc2n1` [JC] the figure was < 20 nM.
For `Cc1cc(COc2ccc(C[C@]3(C(=O)N(C)C)C[C@@H]3C(=O)NO)cc2)c2ccccc2n1` [BL] the value was < 20 nM; for `CCc1cc(COc2ccc(C[C@]3(C(N)=O)C[C@@H]3C(=O)NO)cc2F)c2ccccc2n1` [CO], < 20 nM; for `CN(C)C(=O)[C@@]1(Cc2ccc(OCc3cc(-c4ccncc4)nc4ccccc34)c(F)c2)C[C@@H]1C(=O)NO` [CZ], < 20 nM.
For `Cc1cc(COc2ccc(C[C@]3(C(=O)NCc4ccccc4)C[C@@H]3C(=O)NO)cc2)c2ccccc2n1` [O] the value was < 20 nM.
On to `CCc1cc(COc2ccc(C[C@]3(C(=O)N4CC[C@@H](NC(=O)C(F)(F)F)C4)C[C@@H]3C(=O)NO)cc2F)c2ccccc2n1` [JU], for which the Ki is < 20 nM.
On to `Cc1cc(COc2ccc(C[C@]3(C#N)C[C@@H]3C(=O)NO)cc2)c2ccccc2n1` [FG], for which the Ki was < 20 nM.
For `CCc1cc(COc2ccc(C[C@]3(C(=O)OC)C[C@@H]3C(=O)NO)cc2F)c2ccccc2n1` [DB] the value was < 20 nM; for `Cc1cc(COc2ccc(C[C@]3(C(N)=O)C[C@@H]3C(=O)NO)cc2F)c2ccccc2n1` [CV], < 20 nM; for `COC(=O)[C@@]1(Cc2ccc(OCc3cc(-c4ccncc4)nc4ccccc34)c(F)c2)C[C@@H]1C(=O)NO` [LI], < 20 nM.
For `COC(=O)[C@@]1(Cc2ccc(OCc3cc(N4CCN(C)CC4)nc4ccccc34)c(F)c2)C[C@@H]1C(=O)NO` [GA] the value was < 20 nM.
With `COC(=O)[C@@]1(Cc2ccc(OCc3cc(N4CCOCC4)nc4ccccc34)c(F)c2)C[C@@H]1C(=O)NO` [FZ] the figure was < 20 nM; with `Cc1cc(COc2ccc(C[C@]3(C(=O)NCc4cccnc4)C[C@@H]3C(=O)NO)cc2)c2ccccc2n1` [P], < 20 nM.
Turning to `COC(=O)[C@@]1(Cc2ccc(OCc3cc(N4CCCC4)nc4ccccc34)c(F)c2)C[C@@H]1C(=O)NO` [FY], the Ki was < 20 nM.
With `NC(=O)[C@@]1(Cc2ccc(OCc3cc(-c4ccccc4Cl)nc4ccccc34)c(F)c2)C[C@@H]1C(=O)NO` [CW] the figure was < 20 nM; with `CNc1cc(COc2ccc(C[C@]3(C(=O)OC)C[C@@H]3C(=O)NO)cc2F)c2ccccc2n1` [GB], < 20 nM; with `N[C@@H]1CCN(C(=O)[C@@]2(Cc3ccc(OCc4cc(-c5ccccc5)nc5ccccc45)cc3)C[C@@H]2C(=O)NO)C1` [KZ], < 20 nM.
`Cc1cc(COc2ccc(C[C@]3(C(=O)N4CCC[C@H]4CO)C[C@@H]3C(=O)NO)cc2)c2ccccc2n1` [JG]: the Ki was < 20 nM.
With `CCc1cc(COc2ccc(C[C@]3(C(=O)N4CC[C@@H](N)C4)C[C@@H]3C(=O)NO)cc2F)c2ccccc2n1` [JS] the figure was < 20 nM.
With `NC(=O)[C@@]1(Cc2ccc(OCc3cc(N4CCCCC4)nc4ccccc34)c(F)c2)C[C@@H]1C(=O)NO` [LM] the figure was < 20 nM; with `Cc1cc(COc2cccc([C@@]3(C(=O)OC(C)C)C[C@H]3C(=O)NO)c2)c2ccccc2n1` [KM], < 20 nM.
In the case of `CC1CCCN1c1cc(COc2ccc(C[C@]3(C(N)=O)C[C@@H]3C(=O)NO)cc2F)c2ccccc2n1` (some centres unmarked) [FV], the inhibition constant Ki is < 20 nM.
For `NC(=O)[C@@]1(Cc2ccc(OCc3cc(-c4cccnc4)nc4ccccc34)cc2)C[C@@H]1C(=O)NO` [DA] the value was < 20 nM; for `CN(C)CCNC(=O)[C@@]1(Cc2ccc(OCc3cc(C(F)(F)F)nc4ccccc34)cc2)C[C@@H]1C(=O)NO` [BP], < 20 nM; for `CCCc1cc(COc2ccc(C[C@]3(C(N)=O)C[C@@H]3C(=O)NO)cc2F)c2ccccc2n1` [CR], < 20 nM.
For the compound `NC(=O)[C@@]1(Cc2ccc(OCc3cc(-c4ccc(Cl)cc4)nc4ccccc34)c(F)c2)C[C@@H]1C(=O)NO` [CY], the Ki is < 20 nM.
For `NC(=O)[C@@]1(Cc2ccc(OCc3cc(C4CC4)nc4ccccc34)c(F)c2)C[C@@H]1C(=O)NO` [CU] the value was < 20 nM.
With `NC(=O)[C@@]1(Cc2ccc(OCc3cc(-c4ccccn4)nc4ccccc34)c(F)c2)C[C@@H]1C(=O)NO` [CS] the figure was < 20 nM; with `CCOC(=O)[C@@]1(Cc2ccc(OCc3cc(-c4cccnc4)nc4ccc(C)cc34)c(F)c2)C[C@@H]1C(=O)NO` [GV], < 20 nM; with `Cc1cc(COc2ccc(C[C@]3(C(=O)N(C)C)C[C@@H]3C(=O)NO)cc2F)c2ccccc2n1` [JO], < 20 nM.
With `CN(C)c1cc(COc2ccc(C[C@]3(C(N)=O)C[C@@H]3C(=O)NO)cc2F)c2ccccc2n1` [CN] the figure was < 20 nM.
